Source: US20020182736A1, “Methods to measure lipid antioxidant activity” (TRUSTEES OF TUFTS COLLEGE, priority 2001, published 2002)
Entries after “also recorded” stand apart in the source; their conditions may differ.

Legend:
[1] = test system: lipid plasma compartment oxidation; experiment: Lipid plasma compartment oxidation, BODIPY 581/591 green fluorescence; conditions: 2 mM initiator, 37° C
Protocol: Plasma oxidation was measured fluorometrically using two different fluorescent probes: DCFH and BODIPY. DCFH-DA and BODIPY stock solutions were prepared in EtOH and dimethylsulfoxide, respectively, stored under nitrogen at −20° C. and used within two months. The final plasma dilution was 1:5 (v/v).
In the experiments using β-carotene, to avoid the filtering effect due to the carotenoid, the oxidation product of BODIPY was also detected at λex=520 and at λem-540 nm. The fluorescence measurements were carried out using a Perkin Elmer spectrofluorometer (model 650-10s) with 1 cm path length fluorescence cuvettes.
Briefly, β-carotene (dissolved in stabilized THF, 10 mg/ml) or α-tocopherol (4.3 mg/ml in EtOH) were added to plasma to reach a final concentration of 50 μM; the samples were then vortexed for 30 sec and incubated at 37±1° C. for 1 to 6 hr under nitrogen. […] Controls were prepared in the same way using solvent only.
The effect of adding the membrane soluble antioxidants, α-tocopherol (in EtOH) and β-carotene (in THF), pre-incubated with plasma, was studied. […] Values are mean±SD of five independent experiments. Statistical analysis: one-way ANOVA with Tukey's post test; *p<0.05, **p<0.01.
To monitor the aqueous phase oxidizability, AAPH was used as a hydrophilic radical generator and coupled to DCFH was used as the indicator.

[2] = test system: oxidation of lipid compartment of plasma; experiment: Lipid compartment oxidizability of plasma with BHT standard (MeO-AMVN, BODIPY 581/591); conditions: for Green Fluorescence, 25 μM: equals Plasma minus Plasma + BHT
Protocol: In order to standardize the method to determine the lipophilic antioxidant capacity, butylated hydroxytoluene (BHT), a phenolic synthetic antioxidant, was chosen as an internal standard. Polyenes and certain foods were packaged with added BHT to protect against oxidation. Plasma was incubated with BODIPY 581/591 in the presence and absence of BHT (25 & 50 µM) at 37° C. for 30 min, and determined for oxidizability in the lipid compartment. There was no significant difference among incubation times of 30 min, 1 hr and 2 hr, on the incorporation of BHT in the lipid compartment of plasma (FIG. 14). […] The concentration of BHT may also be reduced to a level sufficient to produce a detectable signal.

[3] = test system: aqueous peroxyl radicals generated by AAPH in human plasma; experiment: Consumption of endogenous plasma antioxidants induced by AAPH (HPLC); conditions: for percentage remaining / Residual Amount (%): AAPH 20 mM for 120 min, no EGCG (control); for time to complete consumption in plasma: 20 mM AAPH, 37° C
Protocol: In a second similar experiment, other antioxidants were studied. […] Echinenone in ethanol was added as an internal standard.

[4] = E(EGCG-O., H+/EGCG-OH); E(A−., H+/AH−); cited from earlier work
[5] = test system: lipid peroxyl radicals generated by MeO-AMVN in human plasma; experiment: Consumption of endogenous plasma antioxidants induced by MeO-AMVN (HPLC); conditions: for time to total disappearance in plasma: human plasma 1:5 with PBS, 37° C
Protocol: After an overnight fast (10-12 h), blood from two healthy donors was collected in ethylenediaminetetraacetic acid (EDTA)-containing tubes. In order to reduce the variability of different donors, blood samples from these two subjects were collected weekly for the duration of the experiment. Immediately after collection, the samples were placed on ice and protected from light. Plasma was obtained by centrifugation at 800 g for 20 min at 4° C. and immediately used for the in vitro studies.
In the presence of 10-20 mM of AAPH, the flux of aqueous radicals calculated on the basis of the known rate of free radical generation from AAPH at 37° C.
In order to obtain homogeneous incorporation, the lipid soluble initiators were added slowly to the samples with a micro-syringe (10 μl) with stirring. The samples were then vortexed for 10 sec and incubated at 37±1° C. under aerobic conditions.
In a second similar experiment, other antioxidants were studied. […] A 100 μl aliquot of the reaction mixture was extracted for β-carotene and α-tocopherol analysis. Echinenone in ethanol was added as an internal standard. The mixture was extracted with CHCl3:CH3OH (2:1 v/v) containing 0.2% BHT and hexane containing 0.1% BHT, dried under nitrogen, redissolved in ethanol, and injected into an HPLC system with a C30 column (3 μm, 150×4.6 mm, YMC, Wilmington, N.C.).
For water-soluble antioxidant measurement, the mixtures were immediately deproteinized with perchloric acid (250 mM).
Results are expressed as percentages with respect to control samples prepared without the azo-compounds.

[6] = ESR quenching of α-tocopheroxyl radical generated from α-tocopherol and DPPH; format: biochemical; conditions: unit inferred; read-out: IC50 quenching of α-TOC-O. ESR signal
Protocol: α-TOC+DPPH→α-TOC-O.+DPPHH [1]
For sample preparation, α-tocopherol (900 μM) and DPPH (600 μM) in ethanol solution were mixed for 20 sec and 50 μl of the reaction mixture transferred into a capillary ESR tube. (−)-Epigallocatechin-(3)-gallate (EGCG) was added to the mixture immediately after DPPH decolorization (30 sec after DPPH addition).

[7] = Subject 1, 2 hr incubation w/1 mM MeO-AMVN
[8] = Subject 1, 3 hr incubation w/1 mM MeO-AMVN
[9] = Subject 2, 2 hr incubation w/1 mM MeO-AMVN
[10] = Subject 2, 3 hr incubation w/1 mM MeO-AMVN
[11] = Subject 3, 2 hr incubation w/1 mM MeO-AMVN
[12] = Subject 3, 3 hr incubation w/1 mM MeO-AMVN

In the case of CC(C)CC(C)(C#N)N=NC(C)(C#N)CC(C)C (stereo not shown) [AMVN, 2,2′-azobis(2,4-dimethylvaleronitrile)], the “change in BODIPY fluorescence in plasma” value [1] is reported as “no observed changes; also recorded: No change”.

For Cc1cc(C(C)(C)C)c(O)c(C(C)(C)C)c1 [BHT, butylated hydroxytoluene], the “protection of oxidation of lipid compartment” value ([2]; BHT added to plasma) was 78%, the “Green Fluorescence, Plasma + BHT” value [2, 7] was 107 ± 1.4 and the “Green Fluorescence, 25 μM” value [2, 7] was 382. For the same compound, the “Green Fluorescence, Plasma + BHT” value [2, 8] was 217 ± 4.0, the “Green Fluorescence, 25 μM” value [2, 8] was 806 and the “Green Fluorescence, Plasma + BHT” value [2, 9] was 123 ± 7.3. For the same compound, the “Green Fluorescence, 25 μM” value [2, 9] was 347, the “Green Fluorescence, Plasma + BHT” value [2, 10] was 223 ± 8.9 and the “Green Fluorescence, 25 μM” value [2, 10] was 650. For the same compound, the “Green Fluorescence, Plasma + BHT” value [2, 11] was 142 ± 8.0, the “Green Fluorescence, 25 μM” value [2, 11] was 245 and the “Green Fluorescence, Plasma + BHT” value [2, 12] was 250 ± 13.3. The “Green Fluorescence, 25 μM” value [2, 12] was 551.

In the case of CC1=C(/C=C/C(C)=C/C=C/C(C)=C/C=C/C=C(C)/C=C/C=C(C)/C=C/C2=C(C)C[C@@H](O)CC2(C)C)C(C)(C)CCC1 [Cryptoxanthin, cryptoxanthin], the “percentage remaining / Residual Amount (%)” value [3] is reported as 18.94 ± 3.86% and the “percentage remaining / Residual Amount (%)” value ([3]; listed as cryptoxanthin) is reported as 18.94±3.86%.

For CC1=C[C@H](O)CC(C)(C)[C@H]1/C=C/C(C)=C/C=C/C(C)=C/C=C/C=C(C)/C=C/C=C(C)/C=C/C1=C(C)C[C@@H](O)CC1(C)C [Lutein, lutein], the “percentage remaining / Residual Amount (%)” value [3] was 12.82 ± 4.85% and the “percentage remaining / Residual Amount (%)” value ([3]; listed as lutein) was 12.82±4.85%.

With CC(C)=CCC/C(C)=C/C=C/C(C)=C/C=C/C(C)=C/C=C/C=C(C)/C=C/C=C(C)/C=C/C=C(\C)CCC=C(C)C [Lycopene, lycopene] the “percentage remaining / Residual Amount (%)” value [3] was 8.49 ± 5.20% and the “percentage remaining / Residual Amount (%)” value ([3]; listed as lycopene) was 8.49±5.20%.

For CC1=C(/C=C/C(C)=C/C=C/C(C)=C/C=C/C=C(C)/C=C/C=C(C)/C=C/C2=C(C)C[C@@H](O)CC2(C)C)C(C)(C)C[C@H](O)C1 [Zeaxanthin, zeaxanthin], the “percentage remaining / Residual Amount (%)” value [3] was 17.50 ± 5.98% and the “percentage remaining / Residual Amount (%)” value ([3]; listed as zeaxanthin) was 17.50±5.98%.

In the case of O=C1O[C@H]([C@@H](O)CO)C(O)=C1O [ascorbic acid], the “time to complete consumption in plasma” value ([3]; human plasma 1:5 with PBS) is given as no more than 15 min, the “redox potential E” value [4] is given as 0.28 V and the “time to total disappearance in plasma” value ([5]; 2 mM MeO-AMVN) is given as 30 min. For the same compound, the IC50 [6] was 14.2 µM.

For O=c1[nH]c(=O)c2[nH]c(=O)[nH]c2[nH]1 [uric acid], the “time to complete consumption in plasma” value ([3]; human plasma 1:5 with PBS) was no more than 180 min and the “time to total disappearance in plasma” value ([5]; 2 mM MeO-AMVN) was 300 min.

For Cc1c(C)c2c(c(C)c1O)CC[C@@](C)(CCC[C@H](C)CCC[C@H](C)CCCC(C)C)O2 [α-tocopherol], the “time to almost complete consumption in plasma” value ([3]; 10-20 mM AAPH, human plasma 1:5 with PBS) was no more than 30 min, the “percentage remaining / Residual Amount (%)” value [3] was 3.86±0.94% and the “time to almost total depletion” value ([5]; 2 mM MeO-AMVN) was 60 min. The “content reduced by” value ([5]; 2 mM MeO-AMVN, at 30 min) was 42% and the “% α-tocopherol remaining” value ([5]; control without EGCG, MeO-AMVN) was 16.43±1.72%.

With CC1=C(/C=C/C(C)=C/C=C/C(C)=C/C=C/C=C(C)/C=C/C=C(C)/C=C/C2=C(C)CCCC2(C)C)C(C)(C)CCC1 [β-Carotene, β-carotene] the “percentage remaining / Residual Amount (%)” value [3] was 28.89±6.17%.
